A melting point compilation (Tetko et al.)

Structure (SMILES) | melting point
CCNC(N)=S | 112 °C
COc1cc(N=C=S)cc(OC)c1 | 50.5 °C
Oc1cccnc1O | 245 °C
CC(CS)C(=O)N1CCCC1C(=O)O (stereo not given) | 106 °C
C=C(C)C(=O)CC | -69.5 °C
CNC(C)C(O)c1ccc(O)cc1 (stereo not given) | 153 °C
c1cnc2c(c1)ccc1ncccc12 | 79 °C
Cc1nn(C)c(Cl)c1C=O | 78 to 79 °C
C=C(C)C(=O)NCO | -37 °C
CCC(C)C(CC)C(N)=O (stereo not given) | 114 °C
NNc1ncc(C(F)(F)F)cc1Cl | 90 to 92 °C
O=C(Br)C(=O)Br | -19 °C
O=Cc1cccc(N2CCCC2)n1 | 63 to 65 °C
CCN1CN(CC)CN(CC)C1 | 70 °C
N#Cc1c(C2CCCCC2)[nH]c(=S)[nH]c1=O | 300 °C
CC1CN(C2CCCCCCCCCCC2)CC(C)O1 (stereo not given) | 71 °C
CCc1c(C)ccc2c1CCC1C2CCC2CC(O)CCC21C (stereo not given) | 172 °C
CCCCCCCCCCCCCCCCCCCCCCCCCCO | 80 °C
Cc1cccc(NN=C2C(=O)N(C)C(=O)N(C)C2=O)c1 | 228 °C
Clc1ncnc2[nH]cnc12 | 300 °C
Cc1cccc(C(C)C)c1O | -14.5 °C

Structure (SMILES) | melting point
O=C(O)[C@H]1[C@H](C(=O)O)[C@H]2C=C[C@@H]1C2 | 185 °C
CCCCCCCCCCCCCCCC(=O)OCCOC(=O)CCCCCCCCCCCCCCC | 72 °C
N#CC#N | -27.9 °C
C1CCCCCCCC1 | 11 °C
Cc1cc(C(F)(F)F)n2nc(N)c(/N=N/c3c(Cl)cc(Cl)cc3Cl)c2n1 | 189 °C
ClCOc1ccc(Cl)cc1 | 29 to 30 °C
CC1=CC(=O)OC(C)(C)O1 | 7 °C
C=CC1(C)CCC2C(=CCC3C(C)(C(=O)O)CCCC23C)C1 (stereo not given) | 160 °C
O=C(CBr)c1cccc2c1OCCO2 | 71 to 72 °C
COC(=O)C(C)N(C(=O)Cc1ccccc1)c1c(C)cccc1C (stereo not given) | 79 °C
CN1CC[C@@H](c2ccc(F)cc2)[C@H](CO)C1 | 97 to 101 °C
CC(C)(O)C12CC3CC(CC(C3)C1)C2 | 75 °C
OCCCc1ccccn1 | 34 °C
NC(=O)c1c(F)c(F)c(N)c(F)c1F | 183 to 187 °C
Nc1n[nH]c(S)n1 | 300 °C
CCCCCCCCCCCCCCC(C)CC (stereo not given) | -6 °C
Cn1ncc(Br)c1NC(=O)CCl | 137 to 139 °C
CC(=NO)c1ccc2c(c1)CC(C)O2 (stereo not given) | 83 to 85 °C
CCC(CO)(CO)[N+](=O)[O-] | 57.5 °C
COc1ccc(-c2ccccc2)cc1NNC(=O)OC(C)C | 122 °C
CCCCCCCCN(C)CCCCCCCC | -30.1 °C

Now from value to compound:

melting point | Structure (SMILES)
102 °C | CC(=O)N(C)C(=O)COC(=O)c1ccccc1
281 °C | CCC1(c2ccccc2)C(=O)NCNC1=O
108 to 109 °C | COC(=O)c1ccc(N)c(N)c1
167 °C | CCc1oc2ccccc2c1C(=O)c1cc(I)c(O)c(I)c1
44 °C | CSc1nc2ccccc2s1
180 °C | Cc1nnc(-c2ccccc2)c2noc(C)c12
206 to 207 °C | Cc1ccccc1NC(=S)/C(=N\NC(=N)N)c1ccccc1
232 °C | O=C(O)C(=Cc1ccc(Cl)cc1)C(=Cc1ccc(Cl)cc1)C(=O)O
300 °C | Nc1cc(S(=O)(=O)O)ccc1Cl
211 °C | O=C(Nc1ccccc1C#CC#Cc1ccccc1NC(=O)c1ccccc1)c1ccccc1
153 °C | Clc1c(Cl)c(Cl)c2c(c1Cl)OC(c1ccccc1)(c1ccccc1)O2
230 °C | Nc1nc2ccccc2[nH]1
175 to 177 °C | Cc1ccccc1C=CC(=O)O
235 to 238 °C | O=[N+]([O-])c1ccccc1-c1nc(-c2ccccc2)c(-c2ccccc2)[nH]1
95 to 96 °C | Cc1noc(-c2cccc(Br)c2)n1
38 to 40 °C | NCc1ccc(-c2ccccc2)nc1
127 to 128 °C | Cc1nc(-c2ccc(C=O)s2)cs1
156 °C | NC(=O)CS(=O)(=O)c1ccccc1
143 °C | Cc1cc(S(=O)(=O)c2ccccc2)ccc1NS(=O)(=O)C(F)(F)F
99 °C | COc1ccccc1C(=O)Oc1ccc(C(=O)/C=C/c2ccc(N(C)C)cc2)cc1
246 °C | c1ccc(Cc2c3ccccc3c(Cc3ccccc3)c3ccccc23)cc1
133 °C | CSC(=O)c1cccc2nnsc12
139 to 144 °C | O=C(C=CC=Cc1ccccc1)C=CC=Cc1ccccc1
68 to 70 °C | CC(=O)Nc1ccccc1OC(F)(F)F
270 °C | Cc1nc2ccccc2[nH]c1=O
112 to 114 °C | O=C(O)CS(=O)(=O)c1ccccc1
152 to 155 °C | Cc1cc2cc(N)ccc2[nH]1

melting point | Structure (SMILES)
165 °C | O=[N+]([O-])c1ccc(-c2ccc(NNc3ccccc3)cc2)cc1
101 to 108 °C | O=C(c1ccc2ccccc2c1)C(Br)c1ccccc1 (stereo not given)
73 to 74 °C | Cc1nc2ccccn2c1Br
163 to 165 °C | CCN(CC)c1ccc(C(c2ccc(N(CC)CC)cc2C)c2ccc(N(CC)CC)cc2C)c(C)c1
68 to 70 °C | ClCc1cccc(-c2ncccn2)c1
168 to 169 °C | Cc1ncc([N+](=O)[O-])n1CCCN1C(=O)c2ccccc2C1=O
65 °C | Oc1ccc(C2CCCC2)cc1
100 °C | N#Cc1c(O)nsc1Nc1ccccc1Cl
54 °C | CCOC(=O)c1ccc(C#N)cc1
102 °C | O=C1CCOc2ccc(Cl)cc21
241 °C | O=C1c2ccccc2C(=O)C1c1ccc2ccccc2n1
248 to 252 °C | O=C1OC(=O)C23Cc4ccccc4CC12Cc1cc2c(cc1C3)CC2 (stereo not given)
225 °C | N#C/C(=N/Nc1ccc(F)cc1)c1nc(-c2ccc(Cl)cc2)cs1
163 °C | CC(C(=O)O)=C(C)c1cccc(C)c1
38 °C | O=C(c1ccccc1)c1cccnc1
230 to 232 °C | Cc1ccc(-c2cc(C(=O)O)c(C)o2)cc1
155 to 157 °C | Cc1cc(C(=O)Nc2ccc(Cl)cc2)no1
288 °C | CCCCc1cc2c(O)c(C(=O)OC)cnc2cc1OCc1ccccc1
169 °C | CC(=O)Nc1ccc(C(C)=O)cc1
193 to 195 °C | Cc1ccccc1NC(=O)C(C(F)(F)F)C(F)(F)F
168 to 170 °C | Clc1ccc(C2C3CCc4ccccc4C3=NN2c2ccccc2)cc1 (stereo not given)
67 to 68 °C | CCOC(=O)C1CCN(c2ccc(C#N)cc2)CC1
56.5 °C | Cc1cc2ccccc2n1C
228 °C | Cc1cc(C)n2nc(N)c(/N=N/c3ccncc3)c2n1
184 °C | O=[N+]([O-])c1ccc(C2Nn3c(COc4ccccc4)nnc3S2)cc1 (stereo not given)
213 °C | O=c1c(C2CC(c3ccc(-c4ccccc4)cc3)Cc3ccccc32)c(O)oc2ccccc12 (stereo not given)
